Experimental data taken from US12139487B2, “Compounds and uses thereof” (Foghorn Therapeutics Inc., priority 2022, dated 2024).

Key:
[1] = target: T1, BRM (Homo sapiens, UniProt P51531); assay: ATPase catalytic activity assay (ADP-Glo), BRM; assay type: biochemical; conditions: Table 10; for Ratio (BRG1 IC50 (μM) divided by BRM IC50 (μM)): ATPase assay, selectivity BRG1/BRM; for IC50: ATPase catalytic activity assay (ADP-Glo)
T1 construct: made in house; host or cells: High Five insect cells
How it was run: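 ADP-Glo luminescence measures ADP produced by BRM ATPase (30 nM) during 1 h at room temperature. ATP is 400 μM, with 20 nM salmon sperm DNA as cofactor. Buffer: 20 mM Tris pH 8, 20 mM MgCl2, 50 mM NaCl, 0.1% Tween-20, 1 mM DTT.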

[2] = target: T2, BRG-1 (Homo sapiens, UniProt P51532); assay: ATPase catalytic activity assay (ADP-Glo), BRG-1; assay type: biochemical; conditions: Table 10, read-out: BRG1 IC50
T2 construct: made in house; host or cells: High Five insect cells
T2 sequence (P51532 whole entry): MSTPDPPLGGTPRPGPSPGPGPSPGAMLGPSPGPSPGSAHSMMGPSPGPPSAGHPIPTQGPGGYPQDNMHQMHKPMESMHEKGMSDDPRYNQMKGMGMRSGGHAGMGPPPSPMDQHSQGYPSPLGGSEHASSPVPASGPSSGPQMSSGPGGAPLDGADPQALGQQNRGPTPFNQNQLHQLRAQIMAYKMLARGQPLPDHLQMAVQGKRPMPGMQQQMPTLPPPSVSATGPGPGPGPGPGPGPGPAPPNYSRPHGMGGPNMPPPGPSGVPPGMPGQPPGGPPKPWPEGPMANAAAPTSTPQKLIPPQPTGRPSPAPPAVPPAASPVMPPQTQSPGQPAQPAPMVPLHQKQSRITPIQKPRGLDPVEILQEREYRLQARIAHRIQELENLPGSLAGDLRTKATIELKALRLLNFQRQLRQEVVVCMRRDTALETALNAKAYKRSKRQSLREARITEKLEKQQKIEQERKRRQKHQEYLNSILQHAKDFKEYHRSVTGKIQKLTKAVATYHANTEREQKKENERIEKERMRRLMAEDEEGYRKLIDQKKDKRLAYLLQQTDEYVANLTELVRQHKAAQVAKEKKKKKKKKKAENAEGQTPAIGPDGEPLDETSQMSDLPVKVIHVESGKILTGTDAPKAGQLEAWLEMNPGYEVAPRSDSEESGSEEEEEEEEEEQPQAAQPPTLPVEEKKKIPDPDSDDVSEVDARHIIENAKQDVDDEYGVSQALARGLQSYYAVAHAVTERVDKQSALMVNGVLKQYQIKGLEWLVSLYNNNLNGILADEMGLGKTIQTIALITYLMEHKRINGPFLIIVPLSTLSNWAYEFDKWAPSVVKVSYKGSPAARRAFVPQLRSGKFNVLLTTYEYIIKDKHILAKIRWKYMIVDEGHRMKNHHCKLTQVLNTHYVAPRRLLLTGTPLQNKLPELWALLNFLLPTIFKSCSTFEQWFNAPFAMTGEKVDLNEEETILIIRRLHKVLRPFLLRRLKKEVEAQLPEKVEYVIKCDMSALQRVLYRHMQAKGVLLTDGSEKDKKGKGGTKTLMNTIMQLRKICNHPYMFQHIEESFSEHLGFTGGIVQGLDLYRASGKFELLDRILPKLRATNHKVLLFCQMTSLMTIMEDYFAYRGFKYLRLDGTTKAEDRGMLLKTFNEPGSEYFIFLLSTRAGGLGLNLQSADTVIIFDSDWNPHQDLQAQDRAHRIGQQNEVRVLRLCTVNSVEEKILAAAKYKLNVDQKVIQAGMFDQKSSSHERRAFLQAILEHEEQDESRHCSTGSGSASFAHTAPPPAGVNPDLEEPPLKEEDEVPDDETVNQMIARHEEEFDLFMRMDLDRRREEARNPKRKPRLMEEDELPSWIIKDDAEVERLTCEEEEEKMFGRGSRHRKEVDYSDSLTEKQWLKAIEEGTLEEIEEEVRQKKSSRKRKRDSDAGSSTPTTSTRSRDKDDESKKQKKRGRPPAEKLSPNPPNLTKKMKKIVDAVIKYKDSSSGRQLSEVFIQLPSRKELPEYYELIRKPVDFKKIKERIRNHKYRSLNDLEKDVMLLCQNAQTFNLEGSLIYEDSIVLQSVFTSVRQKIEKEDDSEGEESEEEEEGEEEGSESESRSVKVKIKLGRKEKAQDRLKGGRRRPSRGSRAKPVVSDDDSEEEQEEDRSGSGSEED
How it was run: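 In this in vitro format, BRG-1 hydrolysis product ADP is detected via a two-step ADP-Glo workup (ATP removal, then ADP-to-ATP conversion with luciferase detection) followed by a luminescence read.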

T1 sequence (P51531 whole entry): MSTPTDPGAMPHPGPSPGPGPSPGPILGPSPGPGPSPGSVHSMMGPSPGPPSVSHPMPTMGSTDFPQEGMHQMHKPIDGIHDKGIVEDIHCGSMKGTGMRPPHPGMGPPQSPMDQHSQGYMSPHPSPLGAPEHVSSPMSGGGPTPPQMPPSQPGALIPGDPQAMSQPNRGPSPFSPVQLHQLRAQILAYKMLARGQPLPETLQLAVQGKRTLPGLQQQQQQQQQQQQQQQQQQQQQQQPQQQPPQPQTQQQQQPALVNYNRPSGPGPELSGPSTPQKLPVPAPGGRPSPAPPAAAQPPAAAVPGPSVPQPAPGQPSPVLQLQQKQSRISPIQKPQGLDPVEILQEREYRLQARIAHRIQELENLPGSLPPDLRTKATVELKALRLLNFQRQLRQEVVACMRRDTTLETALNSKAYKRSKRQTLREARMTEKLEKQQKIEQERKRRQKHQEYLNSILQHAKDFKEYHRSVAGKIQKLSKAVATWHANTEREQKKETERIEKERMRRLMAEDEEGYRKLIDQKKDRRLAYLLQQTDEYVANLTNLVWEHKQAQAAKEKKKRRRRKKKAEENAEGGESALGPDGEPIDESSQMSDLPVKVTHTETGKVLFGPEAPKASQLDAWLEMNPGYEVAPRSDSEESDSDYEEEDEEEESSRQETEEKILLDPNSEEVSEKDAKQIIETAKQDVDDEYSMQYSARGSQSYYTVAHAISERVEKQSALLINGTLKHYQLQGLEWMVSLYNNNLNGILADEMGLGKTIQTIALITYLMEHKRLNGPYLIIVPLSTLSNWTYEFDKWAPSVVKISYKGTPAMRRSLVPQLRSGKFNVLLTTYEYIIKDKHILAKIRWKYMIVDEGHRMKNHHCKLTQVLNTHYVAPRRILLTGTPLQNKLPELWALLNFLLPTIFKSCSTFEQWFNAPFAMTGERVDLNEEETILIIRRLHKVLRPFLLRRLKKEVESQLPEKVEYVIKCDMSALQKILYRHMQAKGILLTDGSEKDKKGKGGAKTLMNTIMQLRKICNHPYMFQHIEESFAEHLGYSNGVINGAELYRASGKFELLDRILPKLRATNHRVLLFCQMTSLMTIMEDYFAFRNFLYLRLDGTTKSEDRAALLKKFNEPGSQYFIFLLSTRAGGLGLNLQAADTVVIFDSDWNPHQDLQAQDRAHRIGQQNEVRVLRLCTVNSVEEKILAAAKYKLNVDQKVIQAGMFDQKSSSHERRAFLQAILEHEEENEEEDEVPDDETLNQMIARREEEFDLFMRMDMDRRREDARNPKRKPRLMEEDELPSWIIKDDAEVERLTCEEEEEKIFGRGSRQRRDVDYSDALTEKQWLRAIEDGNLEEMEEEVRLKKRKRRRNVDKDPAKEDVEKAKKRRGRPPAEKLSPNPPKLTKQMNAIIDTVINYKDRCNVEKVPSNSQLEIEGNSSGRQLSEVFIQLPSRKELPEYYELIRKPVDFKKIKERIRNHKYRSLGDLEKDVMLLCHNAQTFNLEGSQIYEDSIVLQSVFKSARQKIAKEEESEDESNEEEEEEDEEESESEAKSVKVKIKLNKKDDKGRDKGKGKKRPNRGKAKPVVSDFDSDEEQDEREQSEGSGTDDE

Row | Compound | Ratio (BRG1 IC50 (μM) divided by BRM IC50 (μM)) [1] | IC50 [1] [nM] | IC50 [2] [nM]
1 | C[C@@H]1CN(c2cccc(-c3ccc4cnc(CNC(=O)c5ccc6c(c5)S(=O)(=O)[C@H](F)CO[C@H]6C)cc4n3)n2)C[C@H](C)O1 [Compound 200] | 16.77 | 6.1 | 101
2 | COCCc1cnc2c(c1)OCCN2c1ccc2cnc(CNC(=O)c3cc(F)c4c(c3)S(=O)(=O)[C@@H](F)CCO4)cc2n1 [Compound 201] | 10.41 | 6.1 | 64
3 | COc1nc([C@@H](F)CF)ccc1-c1ccc2cnc(CNC(=O)c3cc(F)c4c(c3)S(=O)(=O)[C@@H](F)CCO4)cc2n1 [Compound 202] | 15.85 | 6.1 | 125
4 | [2H]C1([2H])Oc2c(F)cc(C(=O)NCc3cc4nc(N5CCOc6ccc(C(F)F)nc65)ccc4cn3)cc2S(=O)(=O)[C@@]([2H])(F)C1([2H])[2H] [Compound 203] | 14.89 | 6.1 | 92
5 | O=C(NCc1cc2nc(N3CCOc4cc(N5CCC(F)CC5)cnc43)ccc2cn1)c1cc(F)c2c(c1)S(=O)(=O)[C@@H](F)CCO2 [Compound 204] | 11.71 | 6.1 | 71.7
6 | O=C(NCc1cc2nc(-c3cccc(OC(F)F)n3)ccc2cn1)c1cc(F)c2c(c1)S(=O)(=O)[C@@H](F)COC2 [Compound 205] | 23.40 | 6.1 | 128
7 | Cc1cc(C(=O)NCc2cc3nc(-c4cccc(OC(F)F)n4)ccc3cn2)cc2c1COC[C@H](F)S2(=O)=O [Compound 206] | 31.39 | 6.2 | 197
8 | O=C(NCc1cc2nc(N3CCOc4ccc([C@@H]5C[C@H]5F)nc43)ccc2cn1)c1cc(F)c2c(c1)S(=O)(=O)[C@@H](F)COC2 [Compound 207] | 18.77 | 6.2 | 113
9 | CO[C@@H]1C[C@H]1N(C)c1cccc(-c2ccc3cnc(CNC(=O)c4cc(F)c5c(c4)S(=O)(=O)[C@@H](F)COC5)cc3n2)n1 [Compound 215] | 13.76 | 6.5 | 89.3
10 | O=C(NCc1cc2nc(N3CCOc4cc(C5CC5)cnc43)ccc2cn1)c1cc(Cl)c2c(c1)S(=O)(=O)[C@@H](F)CCO2 [Compound 216] | 21.18 | 6.5 | 148
11 | O=C(NCc1cc2nc(N3CCCc4sc(C(F)F)nc43)ccc2cn1)c1cc(F)c2c(c1)S(=O)(=O)[C@@H](F)CCO2 [Compound 217] | 9.68 | 6.5 | 63.4
12 | COc1nc(C(F)F)ccc1-c1ccc2cnc(CNC(=O)c3cc(Cl)c4c(c3)S(=O)(=O)[C@@H](F)COC4)cc2n1 [Compound 221] | 27.18 | 6.9 | 178
13 | C[C@@H]1CN(c2cccc(-c3ccc4cnc(CNC(=O)c5cc(F)c6c(c5)S(=O)(=O)[C@H](F)CO[C@@H]6C)cc4n3)n2)C[C@H](C)O1 [Compound 222] | 11.79 | 7 | 79.8
14 | C[C@H]1C[C@@H]1c1cnc2c(c1)OCCN2c1ccc2cnc(CNC(=O)c3cc(F)c4c(c3)S(=O)(=O)[C@@H](F)CCO4)cc2n1 [Compound 223] | 13.44 | 7 | 102
15 | COCc1cnc2c(c1)OCCN2c1ccc2cnc(CNC(=O)c3cc(F)c4c(c3)S(=O)(=O)[C@@H](F)CCO4)cc2n1 [Compound 224] | 15.91 | 7.1 | 115
16 | O=C(NCc1cc2nc(-c3cccc(OC(F)F)n3)ccc2cn1)c1cc(Cl)c2c(c1)S(=O)(=O)[C@@H](F)CCO2 [Compound 225] | 49.95 | 7.1 | 461
17 | [2H]C([2H])([2H])Oc1nscc1-c1ccc2cnc(CNC(=O)c3cc(F)c4c(c3)S(=O)(=O)[C@@H](F)CCO4)cc2n1 [Compound 226] | 14.90 | 7.1 | 106

Row | Compound | Ratio (BRG1 IC50 (μM) divided by BRM IC50 (μM)) [1] | IC50 [1] [nM] | IC50 [2] [nM]
18 | COc1nc(-c2ccc3cnc(CNC(=O)c4cc(F)c5c(c4)S(=O)(=O)[C@@H](F)CCO5)cc3n2)ccc1[C@H](F)CF [Compound 227] | 9.91 | 7.1 | 70.5
19 | O=C(NCc1cc2nc(-c3ccnc(N4CCC4)n3)ccc2cn1)c1cc(F)c2c(c1)S(=O)(=O)[C@@H](F)COC2 [Compound 228] | 14.53 | 7.1 | 108
20 | O=C(NCc1cc2nc(N3CCCc4cc(OC(F)F)cnc43)ccc2cn1)c1cc(F)c2c(c1)S(=O)(=O)[C@@H](F)CCO2 [Compound 229] | 10.03 | 7.2 | 72.3
21 | O=C(NCc1cc2cc(-c3cncc(C4CC4)n3)ccc2cn1)c1cc(F)c2c(c1)S(=O)(=O)[C@@H](F)CCO2 [Compound 230] | 18.99 | 7.2 | 153
22 | C[C@@H]1CN(c2cccc(-c3ccc4nnc(CNC(=O)c5cc(Cl)c6c(c5)S(=O)(=O)[C@@H](F)CCO6)cc4c3)n2)C[C@H](C)O1 [Compound 231] | 14.03 | 7.2 | 102
23 | O=C(NCc1cc2cc(-c3cccc(OC(F)F)n3)ccc2cn1)c1cc(Cl)c2c(c1)S(=O)(=O)[C@@H](F)COC2 [Compound 235, (2R)-6-chloro-N-[[6-[6-(difluoromethoxy)-2-pyridyl]-3-isoquinolyl]methyl]-2-fluoro-1,1-dioxo-3,5-dihydro-2H-4,1λ6-benzoxathiepine-8-carboxamide] | 23.91 | 7.4 | 163
24 | C[C@@H]1CCN1c1cnc2c(c1)CCCN2c1ccc2cnc(CNC(=O)c3cc(F)c4c(c3)S(=O)(=O)[C@@H](F)CCO4)cc2n1 [Compound 236] | 21.61 | 7.4 | 160
25 | Cc1cc(C(=O)NCc2cc3nc(N4CCOc5ccc(C(F)F)nc54)ccc3cn2)cc2c1COC[C@H](F)S2(=O)=O [Compound 237] | 25.36 | 7.6 | 172
26 | O=C(NCc1cc2nc(-c3cncc(C4CC4)n3)ccc2cn1)c1cc(F)c2c(c1)S(=O)(=O)[C@@H](F)COC2 [Compound 238] | 17.11 | 7.6 | 132
27 | CC#Cc1cnc2c(c1)OCCN2c1ccc2cnc(CNC(=O)c3cc(F)c4c(c3)S(=O)(=O)[C@@H](F)COC4)cc2n1 [Compound 239] | 12.22 | 7.6 | 93.2
28 | C[C@H](NC(=O)c1cc(F)c2c(c1)S(=O)(=O)[C@@H](F)CCO2)c1cc2nc(N3CCOc4cc(C5CC5)cnc43)ccc2cn1 [Compound 240] | 19.83 | 7.6 | 185
29 | O=C(NCc1cc2nc(N3CCOc4cc(N5CC(F)(F)C5)cnc43)ccc2cn1)c1cc(F)c2c(c1)S(=O)(=O)[C@@H](F)CCO2 [Compound 244] | 25.74 | 7.8 | 245
30 | COc1nc(C)ccc1-c1ccc2cnc(CNC(=O)c3cc(F)c4c(c3)S(=O)(=O)[C@@H](F)CCO4)cc2n1 [Compound 245] | 17.91 | 7.8 | 166
31 | O=C(NCc1cc2nc(N3CCOc4ccc(N5CC(F)C5)nc43)ccc2cn1)c1cc(F)c2c(c1)S(=O)(=O)[C@@H](F)CCO2 [Compound 246] | 23.74 | 7.8 | 217
32 | CCOc1cnc2c(c1)OCCN2c1ccc2cnc(CNC(=O)c3cc(F)c4c(c3)S(=O)(=O)[C@@H](F)CCO4)cc2n1 [Compound 247] | 13.39 | 7.8 | 98.5
33 | O=C(NCc1cc2nc(N3CCOc4cc(N5CC(CF)C5)cnc43)ccc2cn1)c1cc(F)c2c(c1)S(=O)(=O)[C@@H](F)CCO2 [Compound 248] | 16.34 | 7.8 | 128
